Assay results taken from US11013745B2, “Triazolopyrimidine, triazolopyridine compounds, and the composition thereof for treating PRC2-mediated diseases” (SHANGHAI INSTITUTE OF MATERIA MEDICA, CHINESE ACADEMY OF …, priority 2017, dated 2021).

Assays:
SU-DHL-4 cells = experiment: Growth inhibition of SU-DHL-4 cells in a long term (11 days), CellTiter-Glo; format: cell-based, Human; conditions: Homo sapiens, 264 h; SU-DHL-4, 11 days; read-out: SU-DHL-4 (11 days) IC50
PRC2 enzyme = PRC2 enzyme (Homo sapiens (Human), UniProt O75530); experiment: PRC2 enzyme activity, TR-FRET method; format: biochemical
Sequence of PRC2 enzyme (O75530 whole entry): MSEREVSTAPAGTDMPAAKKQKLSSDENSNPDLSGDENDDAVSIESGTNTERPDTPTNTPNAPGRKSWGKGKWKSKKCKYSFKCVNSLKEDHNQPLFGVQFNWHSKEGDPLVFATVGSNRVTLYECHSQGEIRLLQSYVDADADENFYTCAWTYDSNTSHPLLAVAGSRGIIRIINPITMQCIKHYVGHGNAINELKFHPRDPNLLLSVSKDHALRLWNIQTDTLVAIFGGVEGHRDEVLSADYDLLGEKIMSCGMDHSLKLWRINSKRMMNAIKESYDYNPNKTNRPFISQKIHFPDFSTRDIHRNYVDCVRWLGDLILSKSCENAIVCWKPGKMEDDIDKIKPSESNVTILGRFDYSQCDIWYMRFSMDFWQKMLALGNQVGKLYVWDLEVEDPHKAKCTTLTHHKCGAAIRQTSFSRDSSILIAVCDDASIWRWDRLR
Sequence of PRC2 enzyme (Q15910 whole entry partner): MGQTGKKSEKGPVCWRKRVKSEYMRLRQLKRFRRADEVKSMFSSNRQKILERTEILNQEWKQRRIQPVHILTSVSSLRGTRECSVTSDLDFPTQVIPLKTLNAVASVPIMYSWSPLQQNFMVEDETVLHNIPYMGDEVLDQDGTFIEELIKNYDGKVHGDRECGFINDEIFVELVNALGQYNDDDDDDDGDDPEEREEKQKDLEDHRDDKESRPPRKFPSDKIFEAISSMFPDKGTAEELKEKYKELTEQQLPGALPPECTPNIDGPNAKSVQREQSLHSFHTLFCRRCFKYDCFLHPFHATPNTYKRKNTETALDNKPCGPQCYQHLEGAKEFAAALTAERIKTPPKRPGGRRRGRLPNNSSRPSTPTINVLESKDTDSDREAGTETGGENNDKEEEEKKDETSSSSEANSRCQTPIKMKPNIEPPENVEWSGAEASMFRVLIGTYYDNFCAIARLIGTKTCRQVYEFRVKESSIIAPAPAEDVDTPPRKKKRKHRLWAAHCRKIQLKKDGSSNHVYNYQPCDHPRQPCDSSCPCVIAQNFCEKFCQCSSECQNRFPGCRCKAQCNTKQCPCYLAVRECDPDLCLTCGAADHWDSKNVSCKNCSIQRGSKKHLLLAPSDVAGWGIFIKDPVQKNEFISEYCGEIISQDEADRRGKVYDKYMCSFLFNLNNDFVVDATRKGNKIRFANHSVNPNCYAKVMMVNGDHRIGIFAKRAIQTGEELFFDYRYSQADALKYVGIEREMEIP
Sequence of PRC2 enzyme (Q15022 whole entry partner): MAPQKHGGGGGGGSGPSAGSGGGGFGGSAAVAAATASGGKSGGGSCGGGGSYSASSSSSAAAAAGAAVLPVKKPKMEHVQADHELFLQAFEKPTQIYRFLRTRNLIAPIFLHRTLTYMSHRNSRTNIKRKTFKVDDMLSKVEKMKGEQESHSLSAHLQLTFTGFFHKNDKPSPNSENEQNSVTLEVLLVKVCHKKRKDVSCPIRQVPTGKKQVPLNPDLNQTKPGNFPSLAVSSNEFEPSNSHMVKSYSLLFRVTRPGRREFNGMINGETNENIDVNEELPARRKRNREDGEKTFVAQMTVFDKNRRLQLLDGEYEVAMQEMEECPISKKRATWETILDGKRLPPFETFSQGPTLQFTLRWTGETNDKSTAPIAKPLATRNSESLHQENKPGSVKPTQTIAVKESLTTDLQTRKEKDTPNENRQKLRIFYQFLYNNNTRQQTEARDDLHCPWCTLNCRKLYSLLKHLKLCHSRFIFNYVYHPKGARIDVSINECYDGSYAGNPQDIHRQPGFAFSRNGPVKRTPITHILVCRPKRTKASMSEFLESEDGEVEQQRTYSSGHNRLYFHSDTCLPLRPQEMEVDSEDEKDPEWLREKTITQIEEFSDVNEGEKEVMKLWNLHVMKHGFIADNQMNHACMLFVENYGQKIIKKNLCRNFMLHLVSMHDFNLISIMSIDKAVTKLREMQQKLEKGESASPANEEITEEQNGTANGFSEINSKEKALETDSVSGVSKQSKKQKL
Experimental: The TR-FRET method was used to measure the PRC2 enzyme activity. First, the enzyme was mixed with compounds at different concentrations and incubated for 30 min at room temperature. The biotin-labeled histone H3 peptide substrate and the cofactor S-adenosylmethionine (SAM) were added to initiate the enzymatic reaction. After reaction was performed at room temperature for 4 hour, Acceptor and Donor were added and incubated for half an hour. The multifunctional microplate reader EnVision (Perkin Elmer Inc.) was used to detect the fluorescence signal. Data were analyzed using GraphPad Prism 5.0 software, and IC50 values were obtained.

Pfeiffer cells [1] = experiment: Pfeiffer cell growth inhibition in a long term (11 days), CellTiter-Glo; format: cell-based, Human; conditions: Homo sapiens, 264 h, 11 days, read-out: Experiment on Pfeiffer cell growth inhibition in a long term (11 days IC50)
Experimental: Pfeiffer cells in exponential growth phase were seeded in a 24-well plate with a cell density of 1*10E5 cells/mL. Cells were treated on the same day with the compounds at different concentrations. At day 4 and day 7 of compound treatment, fresh media and compounds were changed. After treated with the compounds for 11 days, cell viability was measured using CellTiter-Glo reagent (Promega Corporation). The data was analyzed using GraphPad Prism 5.0 software and GI50 values were obtained.

Karpas-422 cells = experiment: Growth inhibition of Karpas-422 cells in a long term (11 days), CellTiter-Glo; format: cell-based, Human; conditions: Homo sapiens, 264 h; Karpas-422, 11 days; read-out: Karpas-422 (11 days) IC50
Pfeiffer cells [2] = experiment: Growth inhibition of Pfeiffer cells in a long term (14 days), CellTiter-Glo; format: cell-based, Human; conditions: Homo sapiens, 336 h, 14 days, read-out: Pfeiffer (14 days) IC50
Experimental: In a CO2 cell incubator (37° C., 5% CO2), Human diffuse large B-cell lymphoma (DLBCL) cell line, pfeiffer (obtained from ATCC, CRL-2632) were incubated with RPMI 1640 medium (Gibco, purchased from Life Technologies, 22400-089) containing 10% fetal bovine serum (Gibco, purchased from Life Technologies, 10099-141) and 1% antibiotics (penicillin and streptomycin, purchased from Life Technologies, 10378016). […] After seeding the cells, they were placed in a CO2 incubator and allowed to stand for 1 hour. In a 24-well plate containing cells, 2 μL of three-fold gradient of the compounds at 9 different concentrations or DMSO were added to each well, such that the final concentration of the compounds was 0.003-20 μM or 0.3-2000 nM, and the final concentration of DMSO was 0.2%. At day 4, day 7, and day 11 of compound treatment, the fresh medium and compounds were changed, and the cell density of the DMSO control well was diluted to 2*10E5 cells/mL. The cell dilution ratio for other compound wells was the same as that of the DMSO control well. Cell viability was determined by using CellTiter-Glo reagent (purchased from Promega Inc., G7572): cells treated with the compounds for 14 days were transferred to a white 384-well plate (OptiPlate-384, purchased from PerkinElmer, 6007299) at 40 μL/well, an equal volume of CellTiter-Glo reagent was further added. After incubating at room temperature for 10 min, the cold luminescence signal was detected with a multifunctional microplate reader EnVision (PerkinElmer) at a wavelength of 400 to 700 nm. Data were analyzed using GraphPad Prism 5.0 software, and IC50 values were obtained.

[3] = Liver microsomal stability (mouse); format: in vitro ADME
[4] = Liver microsomal stability (human); format: in vitro ADME
Experimental: (§1) 1. JANUS and temperature control device was turned on. After being initialized, the pipes were flushed until there was no air bubble in the pipes.
(§2) 2. Preparation of buffers used for the experiment
(§3) Preparation of Tris pH 7.4 buffer (0.1 M): 12.12 g of Tris was dissolved in 1000 mL of H2O, the resulting solution was adjusted to pH 7.4 with 2N HCl, aliquoted at 50 mL per tube, and stored at −20° C.
(§4) Preparation of H2O/0.1% BSA buffer: 200 μL of 25% BSA was added to 50 mL of H2O.
(§5) Preparation of VIVID stock solution: 1 mg of VIVID was dissolved in 1 mL of acetonitrile, aliquoted at 50 μL per tube, and stored at −20° C.
(§6) Preparation of MgCl2 solution (100 mM): 1.016 g of MgCl2 was dissolved in 50 mL Tris pH 7.4 buffer, and aliquoted at 1 mL per tube, and stored at −20° C.
(§7) Preparation of NADPH solution (10 mM): 355 mg of NADPH was dissolved in 42.6 mL of Tris pH 7.4 buffer, aliquoted at 1.8 mL per tube, and stored at −20° C.
(§8) Preparation of Blank control: 7.937 mL of Tris, 163 μL of RLM, 450 μL of MgCl2 solution, 450 μL of NADPH solution and 9 mL of methanol were mixed uniformly, aliquoted at 1 mL per tube, and stored at −20° C.
(§9) 3. Preparation of Compound Working Solution
(§10) Dilution step 1:10 μL of compound stock solution was added to 90 μL of DMSO=1 mM stock solution.
(§11) Dilution step 2: 2 μL of 1 mM stock solution was added to 1 mL of H2O/0.1%6 BSA buffer=[…] working solution.
(§12) Dilution step 3: 245 μL of the working solution was added to a 96-well compound plate and added with 5 μL of VIVID stock solution.
(§13) The 96-well compound plate was shaken on a shaker for 5 min.
(§14) 4. The STM in the JANUS in the computer was open to run the EXCEL file, and the JANUS program was operated and run by following the instructions in the EXCEL file.
(§15) 5. After the JANUS program was finished, acetonitrile/water 50:50 (V/V) was added to column 20 of the 384-well black plate, and blank control was added to column 21 of the 384-well black plate.
(§16) 6. the plate (420 nm-465 nm) was read on a microplate reader to determine the VIVID fluorescence intensity.
(§17) 7. After the plate was sealed, shaken and centrifuged, the sample plate was subjected to the LC/MS instrument for sample analysis.
(§18) A profile of the logarithmic value of the remaining rate of the drug in the incubation system versus the incubation time was plotted, and the slope k was obtained by linear regression. The intrinsic clearance rate in vivo (Clint, mL/min/g) value, the clearance rate in vivo (Cl, mL)/min), liver clearance (Clhep, mL/min) and metabolic bioavailability (% MF) were predicted according to the following equations: […]

[5] = Liver microsomal stability (rat); format: in vitro ADME
Experimental: as §1, §2, §3, §4, §5, §6, §7, §8, §9, §10, §11, §12, §13, §14, §15, §16, §17, §18

Row | SMILES | IC50 (SU-DHL-4 cells) [nM] | IC50 (PRC2 enzyme) [nM] | IC50 (Pfeiffer cells [1]) [nM] | IC50 (Karpas-422 cells) [nM] | IC50 (Pfeiffer cells [2]) [nM] | Clearance rate in vivo Clint In Vivo Extpl ([3]; mouse liver microsomes) [mL/min] | Intrinsic clearance rate in vivo Clint In Vitro ([3]; mouse liver microsomes) [mL/min/gprot] | Liver clearance rate Clint Hep In Vivo Extpl ([3]; mouse liver microsomes) [mL/min] | Metabolic bioavailability MF % ([3]; mouse liver microsomes) [%] | half-life ([3]; mouse, liver microsomes, pH 7.4, mouse liver microsomes, read-out: Half life T-half) [min] | Clearance rate in vivo Clint In Vivo Extpl ([4]; human liver microsomes) [mL/min] | Intrinsic clearance rate in vivo Clint In Vitro ([4]; human liver microsomes) [mL/min/gprot] | Liver clearance rate Clint Hep In Vivo Extpl ([4]; human liver microsomes) [mL/min] | half-life ([4]; human, liver microsomes, pH 7.4, human liver microsomes, read-out: Half life T-half) [min] | bioavailability ([4]; human, liver microsomes, pH 7.4, human liver microsomes, read-out: Metabolic bioavailability MF %) [%] | Clearance rate in vivo Clint In Vivo Extpl ([5]; rat liver microsomes) [mL/min] | Intrinsic clearance rate in vivo Clint In Vitro ([5]; rat liver microsomes) [mL/min/gprot] | Liver clearance rate Clint Hep In Vivo Extpl ([5]; rat liver microsomes) [mL/min] | Metabolic bioavailability MF % ([5]; rat liver microsomes) [%] | half-life ([5]; rat, liver microsomes, pH 7.4, rat liver microsomes, read-out: Half life T-half) [min]
1 | CC(C)S(=O)(=O)N1CC=C(c2cnc(NCc3c(F)ccc4c3CCO4)n3cnnc23)CC1 [SL-ZYE-145] | 1 | 8.9 | 1.7 | 3.2 | 1 |  |  |  |  |  |  |  |  |  |  |  |  |  |  | 
2 | O=C(C1CC1)N1CC=C(c2cnc(NCc3c(F)ccc4c3CCO4)n3cnnc23)CC1 [SL-ZYE-162] | 3.1 | 5.2 | 2.7 | 2.8 | 1.2 |  |  |  |  |  |  |  |  |  |  |  |  |  |  | 

Other lines, results leading:

Row | IC50 (SU-DHL-4 cells) [nM] | IC50 (PRC2 enzyme) [nM] | IC50 (Pfeiffer cells [1]) [nM] | IC50 (Karpas-422 cells) [nM] | IC50 (Pfeiffer cells [2]) [nM] | Clearance rate in vivo Clint In Vivo Extpl ([3]; mouse liver microsomes) [mL/min] | Intrinsic clearance rate in vivo Clint In Vitro ([3]; mouse liver microsomes) [mL/min/gprot] | Liver clearance rate Clint Hep In Vivo Extpl ([3]; mouse liver microsomes) [mL/min] | Metabolic bioavailability MF % ([3]; mouse liver microsomes) [%] | half-life ([3]; mouse, liver microsomes, pH 7.4, mouse liver microsomes, read-out: Half life T-half) [min] | Clearance rate in vivo Clint In Vivo Extpl ([4]; human liver microsomes) [mL/min] | Intrinsic clearance rate in vivo Clint In Vitro ([4]; human liver microsomes) [mL/min/gprot] | Liver clearance rate Clint Hep In Vivo Extpl ([4]; human liver microsomes) [mL/min] | half-life ([4]; human, liver microsomes, pH 7.4, human liver microsomes, read-out: Half life T-half) [min] | bioavailability ([4]; human, liver microsomes, pH 7.4, human liver microsomes, read-out: Metabolic bioavailability MF %) [%] | Clearance rate in vivo Clint In Vivo Extpl ([5]; rat liver microsomes) [mL/min] | Intrinsic clearance rate in vivo Clint In Vitro ([5]; rat liver microsomes) [mL/min/gprot] | Liver clearance rate Clint Hep In Vivo Extpl ([5]; rat liver microsomes) [mL/min] | Metabolic bioavailability MF % ([5]; rat liver microsomes) [%] | half-life ([5]; rat, liver microsomes, pH 7.4, rat liver microsomes, read-out: Half life T-half) [min] | SMILES
3 | 3 | 3.9 | 5.1 | 3.1 | 3 |  |  |  |  |  |  |  |  |  |  |  |  |  |  |  | CN1CCC(c2cnc(NCc3c(F)ccc4c3CCO4)n3cnnc23)=CC1=O [SL-E24]
4 | 9 to 50 | 14.1 | 7 | 19.9 | 4 |  |  |  |  |  |  |  |  |  |  |  |  |  |  |  | CC1CC(c2cnc(NCc3c(F)ccc4c3CCO4)n3cnnc23)=CCO1 (stereo not shown) [SL-ZYE-196]
5 | 3 | 5.6 | 1.9 | 7 | 0.7 | 5.51 | 81.6 | 1.94 | 35.3 | 25.7 | 1280 | 16.7 | 691 | 126 | 54 | 64.7 | 144 | 15.3 | 23.6 | 14.6 | CC(=O)N1CC=C(c2cnc(NCc3c(F)ccc4c3CCO4)n3cnnc23)CC1 [E-Y15]
